Laboratory results: US8969080B2, “Remedy for the treatment of cardio-vascular diseases or disorders” (Max-Delbrueck-Centrum fuer Molekulare Medizin, priority 2007, dated 2015)

Legend:
mice = experiment: AngII infusion by minipump in control, β-catenin depleted and β-catenin stabilized mice; format: in vivo, mouse
Description: After 12 days' AngII infusion at pressure doses (1.4 μg Kg^−1 min^−1), control animals developed hypertrophy as judged by echocardiography, gene regulation, in vivo cross sectional area, and heart/body weight ratio as described before (FIG. 4). From the M-mode echocardiography imaging, a thickened inter-ventricular septum and LV posterior wall after AngII was identified in control animals (FIG. 4A). […] LV wall thickening was identical in β-catenin heart-depleted animals and control littermates after AngII (data not shown). […] Moreover, AngII increased gene expression of several hypertrophy gene markers in both control and b-catenin heart-depleted animals with the exception of β-myosin heavy chain (FIG. 4 C). A lack of β-MHC upregulation in response to stress stimuli might be indicative of adaptive cardiac remodeling preserving LV-function as described before (van Rooij E et al., Circ Res. 2004; 94:18e-26).
The effects of 12 days' AngII infusion in mice with cardiac stabilized β-catenin (β-cat^Δex3) were opposite in kind to those of mice with β-catenin heart-depletion. […] ANP (β-cat^Δex3 0.4±0.15; β-cat^Δex3+AngII 1.03±0.15; p<0.01) and BNP (β-cat^Δex3 0.43±0.24; β-cat^Δex3+AngII 1.4±0.27; p<0.01) expression was induced by AngII but final values were generally lower than in control mice (ANP: CT+AngII 2.3±0.8; BNP: CT+AngII 2.6±0.6).
As expected, fractional shortening increased in control mice after AngII treatment (31.1±1.6% to 36.2±1.6%). However, β-catenin heart-stabilization led to reduced fractional shortening after AngII infusion (34.7±2.9% to 22.4±4.5%, p<0.05). These absolute values in animals aged 10 to 14 weeks are identical to a serial analysis of the age-dependant changes employing the same high-resolution echo techniques as used for these studies. […] These absolute values are similar to other reports, i.e. rates of apoptotic cardiomyocytes after trans-aortic constriction. Moreover, no significant differences concerning fibrosis occurring focally throughout the LV wall was observed when both transgenic models were to their respective controls.
Representative examples of M-mode echocardiograms (not shown), quantification of echocardiographic parameters and heart/body weight from control and β-cat^Δex3-6 mice with and without AngII infusion are shown (n≧6 for each group) (B) Myocyte cross-sectional area increases in both control and β-catenin depleted β-cat^Δex3-6 mice as measured by WGA-FITC staining of cardiac tissue sections and quantification from control or β-cat^Δex3-6 mice with AngII infusion (data not shown). At least 500 cells were measured for each animal, n≧4 mice per group. (C) Significant upregulation of ANP, BNP and α-sarcomeric actin normalized to GAPDH after AngII in control and β-catenin depleted β-cat^Δex3-6 mice. Quantification by real-time PCR of whole heart RNA samples from control (white) or β-cat^Δex3-6 (grey) mice without (open bars) and with (shaded bars) AngII infusion. *=P<0.05, **=P<0.01, ***=P<0.001.
(A) Attenuation of cardiac hypertrophy after AngII in β-catenin stabilized mice is accompanied by significant deterioration of systolic function as measured by fractional shortening (right bar graph). Representative examples of M-mode echocardiograms and quantification from control or β-cat^Δex3 mice with and without AngII infusion. Quantification of echocardiographic wall size and fractional shortening from control or β-cat^Δex3 mice with and without AngII infusion. *=P<0.05, **=P<0.01. (B) Increase of myocyte cross-sectional area after AngII is attenuated in β-catenin stabilized β-cat^Δex3 mice (data not shown). At least 400 cells counted per animal, mice per group. ***=P<0.001. (C) Rates of TUNEL/α-sarcomeric actin/DAPI-positive cardiomyocytes after AngII infusion decrease after β-catenin stabilization in β-cat^Δex3. In addition to the TUNEL-assay, slides were co-stained with α-sarcomeric actin and DAPI in control mice and β-cat^Δex3 mice before and after AngII stimulation (data not shown).

[1] = system: β-catenin dependent transcription; experiment: topflash reporter gene assay in isolated neonatal rat cardiomyocytes; format: cell-based; conditions: co-transfection of KLF15; reporter activated by stabilized β-catenin (ΔN-catenin)
Description: (§1) The transcription factor Krüppel-like factor (KLF) 15 inhibits β-catenin dependent transcription in isolated cardiomyocytes through a direct interaction of its C-terminal end as shown by topflash reporter gene assay and immunoprecipitation assays (FIG. 9 A). Isolated neonatal rat cardiomyocytes were used as a model system to analyze factors inhibiting β-catenin dependent gene regulation. β-catenin dependent transcription was measured by reporter gene assay. […] Concerning the molecular mechanisms, KLF15 mutants were analyzed concerning their direct protein interaction to β-catenin employing immunoprecipitation analysis (FIG. 9 B). The interacting domain was mapped to the N-terminus between amino acids 1 and 45 (FIG. 9 B), where as the C-terminus was also required for the transcriptional repressive function.
(§2) Inhibition of β-catenin-dependent gene transcription by KLF15. (A) Reporter gene assay in isolated neonatal cardiomyocytes showing activation of the topflash reporter gene by stabilized β-catenin (ΔN-catenin; dN). A dose-dependent inhibition is observed by co-transfection of KLF15.

β-catenin = molecular target: T1, β-catenin (Homo sapiens, UniProt P35222); experiment: co-immunoprecipitation of KLF15 and KLF15 mutants with β-catenin; format: binding; conditions: full length KLF15
T1 sequence (P35222 1-781): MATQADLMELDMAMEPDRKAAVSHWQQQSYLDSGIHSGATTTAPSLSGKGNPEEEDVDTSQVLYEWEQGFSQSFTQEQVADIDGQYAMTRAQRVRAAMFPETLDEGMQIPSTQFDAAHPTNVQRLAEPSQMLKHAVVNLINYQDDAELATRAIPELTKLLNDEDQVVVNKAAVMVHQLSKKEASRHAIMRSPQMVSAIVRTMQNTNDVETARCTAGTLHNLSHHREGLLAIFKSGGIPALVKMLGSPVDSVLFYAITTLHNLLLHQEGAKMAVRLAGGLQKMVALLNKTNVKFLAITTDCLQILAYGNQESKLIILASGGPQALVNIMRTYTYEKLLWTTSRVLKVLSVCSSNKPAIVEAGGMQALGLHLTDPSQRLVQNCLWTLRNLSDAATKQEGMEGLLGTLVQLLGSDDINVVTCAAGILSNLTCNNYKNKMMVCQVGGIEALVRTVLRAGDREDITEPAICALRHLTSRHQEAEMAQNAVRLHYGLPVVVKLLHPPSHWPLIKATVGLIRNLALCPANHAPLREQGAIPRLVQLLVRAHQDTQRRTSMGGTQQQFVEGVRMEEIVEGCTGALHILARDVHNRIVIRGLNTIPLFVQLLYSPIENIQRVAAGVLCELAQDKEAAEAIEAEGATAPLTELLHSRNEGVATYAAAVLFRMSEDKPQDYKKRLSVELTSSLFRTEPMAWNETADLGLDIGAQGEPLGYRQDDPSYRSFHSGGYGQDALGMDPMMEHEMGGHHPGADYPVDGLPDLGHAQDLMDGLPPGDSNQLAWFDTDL
Description: as §1, §2

Row | direct protein interaction to β-catenin (immunoprecipitation) (β-catenin) | Substance | cardiomyocyte size following AngII treatment (mice; CT animals of the β-catenin stabilization model) | TUNEL-positive cells after AngII (mice; CT of the β-catenin depletion model, baseline 0.004±0.004) [%] | ANP expression (mice; CT+AngII) | BNP expression (mice; CT+AngII) | TUNEL/α-sarcomeric actin/DAPI-positive cells after AngII (mice; CT+AngII, β-catenin stabilization model) [%] | Axin2 levels (whole heart RNA) (mice; both control and β-catenin stabilized mice) | cellular cross sectional area (mice; control mice of the β-catenin depletion model, after 12 days' AngII infusion) | fractional shortening after AngII (mice; control mice, baseline 31.1±1.6%) [%] | Tbx5 gene expression (mice; control mice, effect lost in β-catenin stabilized mice) | ANP expression (mice; β-cat^Δex3+AngII, baseline 0.4±0.15) | BNP expression (mice; β-cat^Δex3+AngII, baseline 0.43±0.24) | TUNEL-positive cells after AngII (mice; β-cat^Δex3-6 mice, baseline 0.112±0.044%) [%] | cardiomyocyte size following AngII treatment (mice; β-cat^Δex3 mice) | TUNEL/α-sarcomeric actin/DAPI-positive cells after AngII (mice; β-cat^Δex3 mice, baseline 0.058±0.027%) [%] | cellular cross sectional area (mice; β-catenin depleted mice (β-cat^Δex3-6), after 12 days' AngII infusion 1.4 μg Kg^−1 min^−1) | fractional shortening after AngII (mice; β-catenin heart-stabilized mice, baseline 34.7±2.9%) [%] | topflash reporter gene activation [1]
1 |  | Angiotensin II (DRVYIHPF; Angiotensin-2; UniProt P01019 25-32, looked up) [AngII, hypertrophic stress stimulus infused by minipump] | 9.07×10^7±0.14×10^7 | 0.09±0.02 | 2.3±0.8 | 2.6±0.6 | 0.297±0.025 | increased | 12.3×10^7±0.19×10^7 a.u. | 36.2±1.6 | significantly downregulated | 1.03±0.15 | 1.4±0.27 | 0.2±0.13 | 8.14×10^7±0.14×10^7 | 0.120±0.049 | 12.1×10^7±0.24×10^7 a.u. | 22.4±4.5 | 
2 | interaction | KLF15: transcription factor Krüppel-like factor 15, co-transfected; inhibits β-catenin dependent transcription |  |  |  |  |  |  |  |  |  |  |  |  |  |  |  |  | inhibit topflash reporter gene activation dose dependendly
